Experiment [1] concerns human acute monocytic leukaemia cell line (THP-1). Put plainly: Monocyte mobilization effect: THP-1 cell migration rate in Transwell. Format: cell-based. To be noted: 3 hr; for cell migration rate (monocyte mobilization effect) compared to the control: 10 nM, FIG. 1, Ret-LysoPC of Example 1-2, Ret-PC of Comparative Example 1. As to the method: A cell suspension of human acute monocytic leukaemia cell line (hereinafter to be referred to as “THP-1”) (manufactured by ATCC) was centrifuged, the supernatant was discarded, 0.1% bovine serum albumin (fatty acid-free, manufactured by SIGMA ALDRICH)-containing RPMI-1640 (manufactured by Life Technologies) was added to give a dispersion. It was centrifuged again, the supernatant was discarded to give cell pellets. 0.1% Bovine serum albumin-containing RPMI-1640 was added to adjust the cell density to 1×10^6 cells/ml. The cell suspension (100 μl/well) was added to Transwell (manufactured by Corning Incorporated, φ6.5 mm, pore size φ8.0 μm). The cells were incubated at 37° C., 5% CO2 for 30 min, and a measurement solution (all-trans retinoic acid (manufactured by Tokyo Chemical Industry Co., Ltd.) (hereinafter to be referred to as “RA”), Ret-PC of Comparative Example 1 or Ret-LysoPC of Example 1-2 dissolved in 0.1% bovine serum albumin-containing RPMI-1640 to 10 nM, and 0.1% bovine serum albumin-containing RPMI-1640 alone) was placed in the lower part of the multiple well plate (600 μl/well). After incubation at 37° C., 5% CO2 for 3 hr, the cell suspension in the multiple well plate was collected, cell density was measured by a hemacytometer and the cell migration rate was determined. The cell migration rate was defined as follows. cell migration rate (%)=(number of cells in multiple well plate)/(number of cells added to Transwell)
A cell suspension of THP-1 was centrifuged, the supernatant was discarded, 0.1% bovine serum-containing RPMI-1640 was added to give a dispersion. It was centrifuged again, the supernatant was discarded to give cell pellets. 0.1% Bovine serum albumin-containing RPMI-1640 was added to adjust the cell density to 1×10^6 cells/ml. The cell suspension (100 μl/well) was added to Transwell (manufactured by Corning Incorporated, φ6.5 mm, pore size φ8.0 μm). The cells were incubated at 37° C., 5% CO2 for 30 min, and a measurement solution (Ret-LysoPC of Examples 1-1 and 1-2 dissolved in 0.1% bovine serum albumin-containing RPMI-1640 to 10 nM, and 0.1% bovine serum albumin-containing RPMI-1640 alone) was placed in the lower part of the multiple well plate (600 μl/well). After incubation at 37° C., 5% CO2 for 3 hr, the cell suspension in the multiple well plate was collected, cell density was measured by a hemacytometer and the cell migration rate was determined.
Using human acute monocytic leukaemia cell line (THP-1) (manufactured by ATCC), a monocyte migration effect of each sample was evaluated. A cell suspension of THP-1 was centrifuged, the supernatant was discarded, 0.1% bovine serum-containing RPMI-1640 was added to give a dispersion. It was centrifuged again, the supernatant was discarded to give cell pellets. 0.1% Bovine serum albumin-containing RPMI-1640 was added to adjust the cell density to 1×10^6 cells/ml. The cell suspension (100 μl/well) was added to Transwell (manufactured by Corning Incorporated, φ6.5 mm, pore size φ8.0 μm). The cells were incubated at 37° C., 5% CO2 for 30 min, and a measurement solution (C18:0-LysoPC (COATSOME MC-80H; manufactured by NOF CORPORATION), Ret-LysoPC of Example 2 or S1P (manufactured by Toronto Research Chemicals) dissolved in 0.1% bovine serum albumin-containing RPMI-1640, and 0.1% bovine serum albumin-containing RPMI-1640 alone) was placed in the lower part of the multiple well plate ([…]). After incubation at 37° C., 5% CO2 for 3 hr, the cell suspension in the multiple well plate was collected, cell density was measured by a hemacytometer and the cell migration rate was determined.

Experiment [2] deals with Human bone marrow-derived mesenchymal stem cell line (UE7T-13). In words: Mesenchymal stem cell mobilization effect: UE7T-13 cell migration ratio in Transwell. As to conditions: 4 hr. Format: cell-based. As to the method: Human bone marrow-derived mesenchymal stem cell line (UE7T-13) (manufactured by National Institute of Biomedical Innovation JCRB Cell Bank) was previously cultured in serum-free DMEM (manufactured by SIGMA ALDRICH) for 24 hr, and 0.25% trypsin/1 mM EDTA solution (manufactured by SIGMA ALDRICH) was added to give a dispersion. 10% Serum-containing DMEM (Powered by 10 medium; manufactured by GlycoTechnica Ltd.) was added, the cell suspension was centrifuged, the supernatant was discarded, 0.1% bovine serum albumin (fatty acid-free, manufactured by SIGMA ALDRICH)-containing DMEM (manufactured by SIGMA ALDRICH) was added to give a dispersion. It was centrifuged again, the supernatant was discarded to give cell pellets. 0.1% Bovine serum albumin-containing DMEM was added to adjust the cell density to 4×10^5 cells/mi. The cell suspension (100 μl/well) was added to Transwell (manufactured by Corning Incorporated, φ6.5 mm, pore size φ8.0 μm). The cells were incubated at 37° C., 5% CO2 for 30 min, and a measurement solution (Ret-LysoPC of Example 1-2 dissolved in 0.1% bovine serum albumin-containing DMEM to 10 nM, or 0.1% bovine serum albumin-containing DMEM alone) was placed in the lower part of the multiple well plate (600 μl/well). After incubation at 37° C., 5% CO2 for 4 hr, the supernatant in the insert was removed. The cells on the upper membrane side were removed, the cells on the lower membrane side were immobilized with 4% para-formaldehyde solution, and stained with crystalviolet solution. They were washed with water, dried, and the number of cells per one field was measured by microscopic observation. The cell migration ratio was defined as follows. cell migration ratio=(number of cell per one membrane field when each measurement solution was used)/(number of cells per one membrane field of control)
The control refers to 0.1% bovine serum albumin-containing DMEM with no addition.
Human bone marrow-derived mesenchymal stem cell line (UE7T-13) (manufactured by National Institute of Biomedical Innovation JCRB Cell Bank) was previously cultured in serum-free DMEM (manufactured by SIGMA ALDRICH) for 24 hr, and 0.25% trypsin/1 mM EDTA solution (manufactured by SIGMA ALDRICH) was added to give a dispersion. 10% Serum-containing DMEM (Powered by 10 medium; manufactured by GlycoTechnica Ltd.) was added, the cell suspension was centrifuged, the supernatant was discarded, 0.1% bovine serum albumin (fatty acid-free, manufactured by SIGMA ALDRICH)-containing DMEM (manufactured by SIGMA ALDRICH) was added to give a dispersion. It was centrifuged again, the supernatant was discarded to give cell pellets. […] They were washed with water, dried, and the number of cells per one field was measured by microscopic observation. […]

The test system of experiment [3] is monocytes and macrophages. To be noted: background art, non-patent documents 2, 3; cited from earlier work.
Where [4] appears, read: 100 nM, FIG. 6, FIG. 7, Ret-LysoPC of Example 2.

Each structure is given as a SMILES string. Some results are limits rather than exact numbers.

In the case of `CC1=C(/C=C/C(C)=C/C=C/C(C)=C/C(=O)O)C(C)(C)CCC1` [RA, all-trans retinoic acid], the “cell migration rate (monocyte mobilization effect) compared to the control” value (“cell migration rate … compared to the control” below) in experiment [1] is on record as “did not show cell migration”.
As to `CC1=C(/C=C/C(C)=C/C=C/C(C)=C/C(=O)OCC(O)COP(=O)([O-])OCC[N+](C)(C)C)C(C)(C)CCC1` (stereo not drawn) [Ret-LysoPC, 1-retinoyl-sn-glycero-3-phosphocholine], the “cell migration rate … compared to the control” value in experiment [1] is on record as “significant (P<0.05) cell migration”. In addition, the “monocyte mobilization effect (cell migration rate)” value in experiment [1] (setting [4]) is on record as “present”; in experiment [1] (any of 1-100 nM, FIG. 7, Ret-LysoPC of Example 2) it was “showed a significant monocyte mobilization effect”. In addition, the “cell migration ratio (mesenchymal stem cell mobilization effect) compared to the control” value in experiment [2] (10 nM, FIG. 3, Ret-LysoPC of Example 1-2) is “significant cell migration”. Besides, the “mesenchymal stem cell mobilization effect (cell migration ratio)” value in experiment [2] (any of 1-100 nM, FIG. 8, Ret-LysoPC of Example 1-2) is on record as “showed a significant mesenchymal stem cell mobilization effect”.
Regarding `CC1=C(/C=C/C(C)=C/C=C/C(C)=C/C(=O)OCC(COP(=O)([O-])OCC[N+](C)(C)C)OC(=O)/C=C(C)/C=C/C=C(C)/C=C/C2=C(C)CCCC2(C)C)C(C)(C)CCC1` (stereo not drawn) [Ret-PC, diretinoyl phosphocholine], the “cell migration rate … compared to the control” value in experiment [1] is on record as “did not show cell migration”.
Take `CCCCCCCCCCCCCCCCCC(=O)OC[C@@H](O)COP(=O)([O-])OCC[N+](C)(C)C` [C18:0-LysoPC, 1-stearoyl-lysophosphocholine]: the “monocyte mobilization effect (cell migration rate)” value in experiment [1] (setting [4]) is “absent”. Moreover, the “concentration at which a monocyte/macrophage mobilizing effect is exhibited” value in experiment [3] is ≥ 10 µM.
With `CCCCCCCCCCCCC/C=C/[C@@H](O)[C@@H](N)COP(=O)(O)O` [Example S1P, sphingosine-1-phosphoric acid], the “monocyte mobilization effect (cell migration rate)” value was “did not show a significant (p<0.05) monocyte mobilization effect” in experiment [1] (1 nM, FIG. 7) and “did not show a significant (p<0.05) monocyte mobilization effect” in experiment [1] (setting [4]). In addition, the “mesenchymal stem cell mobilization effect (cell migration ratio)” value in experiment [2] (10 nM, FIG. 8) was “did not show a significant (p<0.05) mesenchymal stem cell mobilization effect”; in experiment [2] (100 nM, FIG. 8), “did not show a significant (p<0.05) mesenchymal stem cell mobilization effect”. The “concentration at which mobilization of monocytes and macrophages is suppressed (acting on receptor 2)” value in experiment [3] was ≥ 100 nM. In addition, the “effective concentration range for mobilization of monocytes and macrophages” value in experiment [3] is “around 10 nM”.

Source of the values: patent US10092582B2, “Cell mobilization agent containing lysophospholipid with retinoic acid introduced” (NOF CORPORATION, priority 2014, dated 2018).
